Key:
[1] = tested on: Mus musculus; experiment: Toxicity in Mus musculus BALB/c (mouse) assessed as behavioral changes at 50 to 200 mg/kg, po after 72 hr; format: organism-based; parameters: dose 50-200 mg/kg, route oral; conditions: in vivo
[2] = tested on: Mus musculus; experiment: Toxicity in Mus musculus BALB/c (mouse) assessed as mortality at 50 to 200 mg/kg, po after 72 hr; format: organism-based; parameters: dose 50-200 mg/kg, route oral; conditions: in vivo
[3] = tested on: Mus musculus; experiment: Antioxidant activity in Mus musculus BALB/c (mouse) stomach assessed as TBARS level at 100 mg/kg, po (reference value: 80.4 +/- 5.4 nmol/g ); format: functional
[4] = tested on: Mus musculus; experiment: Anti-inflammatory activity in Mus musculus BALB/c (mouse) assessed as inhibition of carrageenan-induced paw swelling at 100 mg/kg, po administered 1 hr followed by carrageenan challenge measured at 360 min relative to control; format: functional
[5] = tested on: Mus musculus; experiment: Anti-inflammatory activity in Mus musculus BALB/c (mouse) assessed as inhibition of carrageenan-induced paw swelling at 50 mg/kg, po administered 1 hr followed by carrageenan challenge measured at 360 min relative to control; format: functional
[6] = tested on: Mus musculus; experiment: Anti-inflammatory activity in Mus musculus BALB/c (mouse) assessed as inhibition of carrageenan-induced paw swelling at 100 mg/kg, po administered 1 hr followed by carrageenan challenge measured at 270 min relative to control; format: functional
[7] = tested on: Mus musculus; experiment: Anti-inflammatory activity in Mus musculus BALB/c (mouse) assessed as inhibition of carrageenan-induced paw swelling at 50 mg/kg, po administered 1 hr followed by carrageenan challenge measured at 270 min relative to control; format: functional
[8] = tested on: Mus musculus; experiment: Anti-inflammatory activity in Mus musculus BALB/c (mouse) assessed as inhibition of carrageenan-induced paw swelling at 100 mg/kg, po administered 1 hr followed by carrageenan challenge measured at 180 min relative to control; format: functional
[9] = tested on: Mus musculus; experiment: Anti-inflammatory activity in Mus musculus BALB/c (mouse) assessed as carrageenan-induced paw swelling at 50 mg/kg, po administered 1 hr followed by carrageenan challenge measured at 360 min (reference value: 105 +/- 4.5 x 10^-2 mm); format: functional
[10] = tested on: Mus musculus; experiment: Anti-inflammatory activity in Mus musculus BALB/c (mouse) assessed as carrageenan-induced paw swelling at 200 mg/kg, po administered 1 hr followed by carrageenan challenge measured at 360 min (reference value: 105 +/- 4.5 x 10^-2 mm); format: functional
[11] = tested on: Mus musculus; experiment: Anti-inflammatory activity in Mus musculus BALB/c (mouse) assessed as carrageenan-induced paw swelling at 100 mg/kg, po administered 1 hr followed by carrageenan challenge measured at 360 min (reference value: 105 +/- 4.5 x 10^-2 mm); format: functional
[12] = tested on: Mus musculus; experiment: Anti-inflammatory activity in Mus musculus BALB/c (mouse) assessed as carrageenan-induced paw swelling at 50 mg/kg, po administered 1 hr followed by carrageenan challenge measured at 270 min (reference value: 78 +/- 8.4 x 10^-2 mm); format: functional
[13] = tested on: Mus musculus; experiment: Anti-inflammatory activity in Mus musculus BALB/c (mouse) assessed as carrageenan-induced paw swelling at 200 mg/kg, po administered 1 hr followed by carrageenan challenge measured at 270 min (reference value: 78 +/- 8.4 x 10^-2 mm); format: functional
[14] = tested on: Mus musculus; experiment: Anti-inflammatory activity in Mus musculus BALB/c (mouse) assessed as carrageenan-induced paw swelling at 100 mg/kg, po administered 1 hr followed by carrageenan challenge measured at 270 min (reference value: 78 +/- 8.4 x 10^-2 mm); format: functional
[15] = tested on: Mus musculus; experiment: Anti-inflammatory activity in Mus musculus BALB/c (mouse) assessed as carrageenan-induced paw swelling at 50 mg/kg, po administered 1 hr followed by carrageenan challenge measured at 180 min (reference value: 52 +/- 4.6 x 10^-2 mm); format: functional
[16] = tested on: Mus musculus; experiment: Anti-inflammatory activity in Mus musculus BALB/c (mouse) assessed as carrageenan-induced paw swelling at 200 mg/kg, po administered 1 hr followed by carrageenan challenge measured at 180 min (reference value: 52 +/- 4.6 x 10^-2 mm); format: functional
[17] = tested on: Mus musculus; experiment: Anti-inflammatory activity in Mus musculus BALB/c (mouse) assessed as carrageenan-induced paw swelling at 100 mg/kg, po administered 1 hr followed by carrageenan challenge measured at 180 min (reference value: 52 +/- 4.6 x 10^-2 mm); format: functional
[18] = tested on: Mus musculus; experiment: Anti-inflammatory activity in Mus musculus BALB/c (mouse) assessed as carrageenan-induced paw swelling at 50 mg/kg, po administered 1 hr followed by carrageenan challenge measured at 90 min (reference value: 39 +/- 5.6 x 10^-2 mm); format: functional
[19] = tested on: Mus musculus; experiment: Anti-inflammatory activity in Mus musculus BALB/c (mouse) assessed as carrageenan-induced paw swelling at 200 mg/kg, po administered 1 hr followed by carrageenan challenge measured at 90 min (reference value: 39 +/- 5.6 x 10^-2 mm); format: functional
[20] = tested on: Mus musculus; experiment: Anti-inflammatory activity in Mus musculus BALB/c (mouse) assessed as carrageenan-induced paw swelling at 100 mg/kg, po administered 1 hr followed by carrageenan challenge measured at 90 min (reference value: 39 +/- 5.6 x 10^-2 mm); format: functional
[21] = tested on: Mus musculus; experiment: Analgesic activity in Mus musculus BALB/c (mouse) assessed as inhibition of acetic acid-induced writhing at 100 mg/kg, po administered 1 hr followed by acetic acid challenge measured for 10 min; format: functional
[22] = tested on: Mus musculus; experiment: Anti-inflammatory activity in Mus musculus BALB/c (mouse) assessed as inhibition of carrageenan-induced paw swelling at 200 mg/kg, po administered 1 hr followed by carrageenan challenge measured at 360 min relative to control; format: functional
[23] = tested on: Mus musculus; experiment: Anti-inflammatory activity in Mus musculus BALB/c (mouse) assessed as inhibition of carrageenan-induced paw swelling at 200 mg/kg, po administered 1 hr followed by carrageenan challenge measured at 270 min relative to control; format: functional
[24] = tested on: Mus musculus; experiment: Anti-inflammatory activity in Mus musculus BALB/c (mouse) assessed as inhibition of carrageenan-induced paw swelling at 200 mg/kg, po administered 1 hr followed by carrageenan challenge measured at 180 min relative to control; format: functional

SMILES: COc1cc(CC2=NC(=S)N=N2)cc(OC)c1OC
- Activity [1]: Non-toxic
- Activity [2]: Non-toxic
- Activity [3]: 115.1 nmol/g
- inhibition in vivo at 100 mg/kg [4]: 38.1%
- inhibition in vivo at 50 mg/kg [5]: 26.4%
- inhibition in vivo at 100 mg/kg [6]: 23.1%
- inhibition in vivo at 50 mg/kg [7]: 25.9%
- inhibition in vivo at 100 mg/kg [8]: 18.3%
- Activity [9]: 77.3 ×10⁻² mm
- Activity [10]: 104.5 ×10⁻² mm
- Activity [11]: 65 ×10⁻² mm
- Activity [12]: 57.8 ×10⁻² mm
- Activity [13]: 77 ×10⁻² mm
- Activity [14]: 60 ×10⁻² mm
- Activity [15]: 46 ×10⁻² mm
- Activity [16]: 49.8 ×10⁻² mm
- Activity [17]: 42.5 ×10⁻² mm
- Activity [18]: 35.6 ×10⁻² mm
- Activity [19]: 45.6 ×10⁻² mm
- Activity [20]: 36.2 ×10⁻² mm

SMILES: CCOC(=O)Cc1csc2nc(-c3cc(Cl)cc(Cl)c3)nn12
- Activity [1]: Non-toxic
- Activity [2]: Non-toxic
- Activity [3]: 200.1 nmol/g
- inhibition in vivo at 100 mg/kg [21]: 35.9%
- inhibition in vivo at 200 mg/kg [22]: 20.8%
- inhibition in vivo at 100 mg/kg [4]: 42.8%
- inhibition in vivo at 200 mg/kg [23]: 21.4%
- inhibition in vivo at 100 mg/kg [6]: 16.7%
- inhibition in vivo at 200 mg/kg [24]: 17.3%
- Activity [9]: 96 ×10⁻² mm
- Activity [10]: 83.1 ×10⁻² mm
- Activity [11]: 60 ×10⁻² mm
- Activity [12]: 78 ×10⁻² mm
- Activity [13]: 61.3 ×10⁻² mm
- Activity [14]: 65 ×10⁻² mm
- Activity [15]: 49 ×10⁻² mm
- Activity [16]: 43 ×10⁻² mm
- Activity [17]: 66.2 ×10⁻² mm
- Activity [18]: 70.4 ×10⁻² mm
- Activity [19]: 41.6 ×10⁻² mm
- Activity [20]: 40 ×10⁻² mm

SMILES: CCOC(=O)Cc1csc2nc(-c3ccc(OC)cc3)nn12
- Activity [1]: Non-toxic
- Activity [2]: Non-toxic
- Activity [3]: 128.7 nmol/g
- inhibition in vivo at 100 mg/kg [21]: 24.3%
- inhibition in vivo at 100 mg/kg [8]: 24.4%
- Activity [9]: 96.1 ×10⁻² mm
- Activity [10]: 110.8 ×10⁻² mm
- Activity [11]: 122.5 ×10⁻² mm
- Activity [12]: 76.2 ×10⁻² mm
- Activity [13]: 79 ×10⁻² mm
- Activity [14]: 90 ×10⁻² mm
- Activity [15]: 65.4 ×10⁻² mm
- Activity [16]: 52.2 ×10⁻² mm
- Activity [17]: 38.3 ×10⁻² mm
- Activity [18]: 71.2 ×10⁻² mm
- Activity [19]: 43.7 ×10⁻² mm
- Activity [20]: 47.9 ×10⁻² mm

SMILES: Sc1n[nH]c(-c2ccccc2)n1
- Activity [1]: Non-toxic
- Activity [2]: Non-toxic
- Activity [3]: 88.4 nmol/g
- inhibition in vivo at 100 mg/kg [21]: 35.9%
- inhibition in vivo at 50 mg/kg [5]: 15.1%
- inhibition in vivo at 50 mg/kg [7]: 21.4%
- inhibition in vivo at 100 mg/kg [8]: 27.1%
- Activity [9]: 89.1 ×10⁻² mm
- Activity [10]: 105.4 ×10⁻² mm
- Activity [11]: 126 ×10⁻² mm
- Activity [12]: 61.3 ×10⁻² mm
- Activity [13]: 74.3 ×10⁻² mm
- Activity [14]: 111 ×10⁻² mm
- Activity [15]: 34.9 ×10⁻² mm
- Activity [16]: 51.7 ×10⁻² mm
- Activity [17]: 36.9 ×10⁻² mm
- Activity [18]: 39.8 ×10⁻² mm
- Activity [19]: 45.8 ×10⁻² mm
- Activity [20]: 44.3 ×10⁻² mm

SMILES: CC(=O)Oc1ccccc1C(=O)O [ASPIRIN]
- Activity [1]: Non-toxic
- Activity [2]: Non-toxic
- Activity [3]: 121 nmol/g
- inhibition in vivo at 100 mg/kg [21]: 50%
